Results: ChEMBL document CHEMBL3797190, “Development of 3,5-Dinitrobenzylsulfanyl-1,3,4-oxadiazoles and Thiadiazoles as Selective Antitubercular Agents Active Against Replicating and Nonreplicating Mycobacterium tuberculosis” (J Med Chem, 2016)
Values after ≈ are worked out from the molar mass of the structure shown.

Key:
Staphylococcus aureus [1] = experiment: Antibacterial activity against methicillin-resistant Staphylococcus aureus H 5996/08 after 24 to 48 hrs by broth microdilution method; assay type: functional
Mycobacterium kansasii [2] = experiment: Antimycobacterial activity against Mycobacterium kansasii CNCTC My 235/80 after 7 days by microdilution method; assay type: functional; settings: CNCTC My 235/80, 168 h
Nakaseomyces glabratus = experiment: Antifungal activity against Candida glabrata 20/I after 24 to 48 hrs by broth microdilution method; assay type: functional
Escherichia coli = experiment: Antibacterial activity against Escherichia coli ATCC 8739 after 24 to 48 hrs by broth microdilution method; assay type: functional
[3] = system: Staphylococcus epidermidis; experiment: Antibacterial activity against Staphylococcus epidermidis H 6966/08 after 24 to 48 hrs by broth microdilution method; assay type: functional
Staphylococcus aureus [4] = experiment: Antibacterial activity against Staphylococcus aureus ATCC 6538 after 24 to 48 hrs by broth microdilution method; assay type: functional
HeLa [5] = experiment: Cytotoxicity against human HeLa cells assessed as cell viability after 48 hrs by MTS assay; assay type: cell-based
[6] = Cytotoxicity against human HeLa cells assessed as cell viability at 20 uM after 48 hrs by MTS assay; assay type: cell-based; settings: read-out: Activity
[7] = Cytotoxicity against MDCK2-MDR1 cells assessed as cell viability after 24 hrs by MTS assay; assay type: ADME, cell-based; settings: Canis lupus familiaris, MDCK-II
Aspergillus fumigatus = experiment: Antifungal activity against Aspergillus fumigatus 231 after 24 to 48 hrs by broth microdilution method; assay type: functional
Mycobacterium avium [8] = experiment: Antimycobacterial activity against Mycobacterium avium CNCTC My 330/88 after 14 days by microdilution method; assay type: functional; settings: CNCTC My 330/88, 336 h
Pichia kudriavzevii = experiment: Antifungal activity against Candida krusei E28 after 24 to 48 hrs by broth microdilution method; assay type: functional
Mycobacterium kansasii [9] = experiment: Antimycobacterial activity against Mycobacterium kansasii CNCTC My 235/80 after 21 days by microdilution method; assay type: functional; settings: CNCTC My 235/80, 504 h
Mycobacterium kansasii [10] = experiment: Antimycobacterial activity against Mycobacterium kansasii CNCTC My 6509/96 after 21 days by microdilution method; assay type: functional; settings: CNCTC My 6509/96, 504 h
Klebsiella pneumoniae [11] = experiment: Antibacterial activity against ESBL producing Klebsiella pneumoniae J 14368/08 after 24 to 48 hrs by broth microdilution method; assay type: functional
Mycobacterium avium [12] = experiment: Antimycobacterial activity against Mycobacterium avium CNCTC My 330/88 after 21 days by microdilution method; assay type: functional; settings: CNCTC My 330/88, 504 h
[13] = Cytotoxicity against human HuH7 cells assessed as cell viability after 48 hrs by MTS assay; assay type: cell-based; settings: Huh-7, 48 h
Klebsiella pneumoniae [14] = experiment: Antibacterial activity against Klebsiella pneumoniae D 11750/08 after 24 to 48 hrs by broth microdilution method; assay type: functional
[15] = Cytotoxicity against human HuH7 cells assessed as cell viability at 20 uM after 48 hrs by MTS assay; assay type: cell-based, Huh-7; settings: read-out: Activity
[16] = Cytotoxicity against MDCK2-MDR1 cells assessed as cell viability after 48 hrs by MTS assay; assay type: ADME, cell-based; settings: Canis lupus familiaris, MDCK-II
Mycobacterium kansasii [17] = experiment: Antimycobacterial activity against Mycobacterium kansasii CNCTC My 235/80 after 14 days by microdilution method; assay type: functional; settings: CNCTC My 235/80, 336 h
[18] = Cytotoxicity against MDCK2-MDR1 cells assessed as cell viability at 20 uM after 24 hrs by MTS assay; assay type: ADME, cell-based, Canis lupus familiaris, MDCK-II; settings: dog, read-out: Activity
Mycobacterium kansasii [19] = experiment: Antimycobacterial activity against Mycobacterium kansasii CNCTC My 6509/96 after 7 days by microdilution method; assay type: functional; settings: CNCTC My 6509/96, 168 h
[20] = system: Mycobacterium tuberculosis; experiment: Antimycobacterial activity against Mycobacterium tuberculosis CNCTC My 331/88 after 14 days by microdilution method; assay type: functional; settings: CNCTC My 331/88, 336 h
Lichtheimia corymbifera = experiment: Antifungal activity against Absidia corymbifera 272 after 24 to 48 hrs by broth microdilution method; assay type: functional
HeLa [21] = experiment: Cytotoxicity against human HeLa cells assessed as cell viability after 24 hrs by MTS assay; assay type: cell-based
[22] = Cytotoxicity against human HuH7 cells assessed as cell viability at 20 uM after 24 hrs by MTS assay; assay type: cell-based, Huh-7; settings: read-out: Activity
[23] = system: Trichophyton mentagrophytes; experiment: Antifungal activity against Trichophyton mentagrophytes 445 after 72 to 120 hrs by broth microdilution method; assay type: functional
Candida tropicalis = experiment: Antifungal activity against Candida tropicalis 156 after 24 to 48 hrs by broth microdilution method; assay type: functional
Mycobacterium kansasii [24] = experiment: Antimycobacterial activity against Mycobacterium kansasii CNCTC My 6509/96 after 14 days by microdilution method; assay type: functional; settings: CNCTC My 6509/96, 336 h
[25] = Cytotoxicity against human HeLa cells assessed as cell viability at 20 uM after 24 hrs by MTS assay; assay type: cell-based; settings: read-out: Activity
[26] = Cytotoxicity against human HuH7 cells assessed as cell viability after 24 hrs by MTS assay; assay type: cell-based; settings: Huh-7, 24 h
[27] = system: Mycobacterium tuberculosis; experiment: Antimycobacterial activity against Mycobacterium tuberculosis CNCTC My 331/88 after 21 days by microdilution method; assay type: functional; settings: CNCTC My 331/88, 504 h
[28] = Cytotoxicity against MDCK2-MDR1 cells assessed as cell viability at 20 uM after 48 hrs by MTS assay; assay type: ADME, cell-based, Canis lupus familiaris, MDCK-II; settings: dog, read-out: Activity
Trichosporon asahii = experiment: Antifungal activity against Trichosporon asahii 1188 after 24 to 48 hrs by broth microdilution method; assay type: functional
Candida albicans = experiment: Antifungal activity against Candida albicans ATCC 44859 after 24 to 48 hrs by broth microdilution method; assay type: functional
Pseudomonas aeruginosa = experiment: Antibacterial activity against Pseudomonas aeruginosa ATCC 9027 after 24 to 48 hrs by broth microdilution method; assay type: functional
Enterococcus faecalis = experiment: Antibacterial activity against Enterococcus faecalis J 14365/08 after 24 to 48 hrs by broth microdilution method; assay type: functional
Salmonella typhimurium = experiment: Mutagenic activity in Salmonella typhimurium TA98 assessed as reverse mutation at 30 uM by Ames test; assay type: toxicity, organism-based; settings: salmonella enterica subsp. enterica serovar typhimurium
Hepatocyte = experiment: Cytotoxicity against primary human hepatocytes assessed as cell viability after 48 hrs by MTS assay; assay type: cell-based
[29] = Cytotoxicity against primary human hepatocytes assessed as cell viability at 20 uM after 48 hrs by MTS assay; assay type: cell-based, Hepatocyte; settings: read-out: Activity
[30] = system: Mycobacterium tuberculosis; experiment: Antimycobacterial activity against Mycobacterium tuberculosis H37Rv after 7 days by HTS assay; assay type: functional; settings: 168 h

Row | SMILES | MIC95 (Staphylococcus aureus [1]) [µM] | MIC99 (Mycobacterium kansasii [2]) [µM] | MIC80 (Nakaseomyces glabratus) [µM] | MIC95 (Escherichia coli) [µM] | MIC95 [3] [µM] | MIC95 (Staphylococcus aureus [4]) [µM] | viability at 48 h, 20 µM [6] [%] | IC50 [7] [µM] | MIC50 (Aspergillus fumigatus) [µM] | MIC99 (Mycobacterium avium [8]) [µM] | MIC80 (Pichia kudriavzevii) [µM] | MIC99 (Mycobacterium kansasii [9]) [µM] | MIC99 (Mycobacterium kansasii [10]) [µM] | MIC95 (Klebsiella pneumoniae [11]) [µM] | MIC99 (Mycobacterium avium [12]) [µM] | MIC95 (Klebsiella pneumoniae [14]) [µM] | viability at 48 h, 20 µM [15] [%] | MIC99 (Mycobacterium kansasii [17]) [µM] | viability at 24 h, 20 µM [18] [%] | MIC99 (Mycobacterium kansasii [19]) [µM] | also measured
1 | COc1ccc(-c2nnc(SCc3ccc([N+](=O)[O-])cc3[N+](=O)[O-])o2)cc1 | > 125 | 2 (≈ 0.777 µg/mL) | > 125 | > 125 | > 125 | > 125 | 106 | > 20 | > 125 | 4 (≈ 1.55 µg/mL) | > 125 | 16 (≈ 6.21 µg/mL) | 16 (≈ 6.21 µg/mL) | > 125 | 4 (≈ 1.55 µg/mL) | > 125 | 77 | 8 (≈ 3.11 µg/mL) | 87.9 | 2 (≈ 0.777 µg/mL) | IC50 (HeLa [5]): > 20 µM; IC50 [13]: > 20 µM; IC50 [16]: > 20 µM; MIC99 [20]: 0.5 µM (≈ 0.194 µg/mL); MIC50 (Lichtheimia corymbifera): > 125 µM; IC50 (HeLa [21]): > 20 µM; viability at 24 h, 20 µM [22]: 85.1%; MIC50 [23]: > 125 µM; MIC80 (Candida tropicalis): > 125 µM; MIC99 (Mycobacterium kansasii [24]): 8 µM (≈ 3.11 µg/mL); viability at 24 h, 20 µM [25]: 89.9%; IC50 [26]: > 20 µM; MIC99 [27]: 1 µM (≈ 0.388 µg/mL); viability at 48 h, 20 µM [28]: 78.5%; MIC80 (Trichosporon asahii): > 125 µM; MIC80 (Candida albicans): > 125 µM; MIC95 (Pseudomonas aeruginosa): > 125 µM; MIC95 (Enterococcus faecalis): > 125 µM
2 | O=[N+]([O-])c1ccc(CSc2nnc(-c3ccccc3)o2)c([N+](=O)[O-])c1 | > 125 | 4 (≈ 1.43 µg/mL) | > 125 | > 125 | > 125 | > 125 | 113 | > 20 | > 125 | > 16 | > 125 | 16 (≈ 5.73 µg/mL) | 8 (≈ 2.87 µg/mL) | > 125 | > 16 | > 125 | 92.8 | 8 (≈ 2.87 µg/mL) | 69.6 | 2 (≈ 0.717 µg/mL) | IC50 (HeLa [5]): > 20 µM; IC50 [13]: > 20 µM; IC50 [16]: > 20 µM; MIC99 [20]: 2 µM (≈ 0.717 µg/mL); MIC50 (Lichtheimia corymbifera): > 125 µM; IC50 (HeLa [21]): > 20 µM; viability at 24 h, 20 µM [22]: 99.5%; Activity (Salmonella typhimurium): Toxic; MIC50 [23]: > 125 µM; MIC80 (Candida tropicalis): > 125 µM; MIC99 (Mycobacterium kansasii [24]): 8 µM (≈ 2.87 µg/mL); viability at 24 h, 20 µM [25]: 97.7%; IC50 [26]: > 20 µM; MIC99 [27]: 4 µM (≈ 1.43 µg/mL); viability at 48 h, 20 µM [28]: 73.3%; MIC80 (Trichosporon asahii): > 125 µM; MIC80 (Candida albicans): > 125 µM; MIC95 (Pseudomonas aeruginosa): > 125 µM; MIC95 (Enterococcus faecalis): > 125 µM
3 | O=[N+]([O-])c1cc(CSc2nnc(-c3ccc(Cl)cc3Cl)o2)cc([N+](=O)[O-])c1 | > 125 | 0.125 (≈ 0.0534 µg/mL) | > 125 | > 125 | > 125 | > 125 | 39.9 | > 20 | > 125 | 16 (≈ 6.84 µg/mL) | > 125 | 0.5 (≈ 0.214 µg/mL) | 0.5 (≈ 0.214 µg/mL) | > 125 | 32 (≈ 13.7 µg/mL) | > 125 | 37.7 | 0.5 (≈ 0.214 µg/mL) | 106 | 0.125 (≈ 0.0534 µg/mL) | IC50 (Hepatocyte): > 20 µM; MIC99 [20]: ≤ 0.03 µM; MIC50 (Lichtheimia corymbifera): > 125 µM; IC50 (HeLa [21]): > 20 µM; viability at 24 h, 20 µM [22]: 95.7%; MIC50 [23]: > 125 µM; MIC80 (Candida tropicalis): > 125 µM; MIC99 (Mycobacterium kansasii [24]): 0.25 µM (≈ 0.107 µg/mL); viability at 48 h, 20 µM [29]: 81.1%; viability at 24 h, 20 µM [25]: 76.4%; IC50 [26]: > 20 µM; MIC99 [27]: 0.06 µM (≈ 0.0256 µg/mL); viability at 48 h, 20 µM [28]: 27.9%; MIC80 (Trichosporon asahii): > 125 µM; MIC80 (Candida albicans): > 125 µM; MIC95 (Pseudomonas aeruginosa): > 125 µM; MIC95 (Enterococcus faecalis): > 125 µM
4 | COC(=O)CSc1nnc(-c2ccc(C(C)(C)C)cc2)s1 | – | – | – | – | – | – | – | – | – | – | – | – | – | – | – | – | – | – | – | – | IC90 [30]: 0.62 µM
